Assay results: patent publication US20070232691A1, “Use of ladostigil for the treatment of schizophrenia” (priority 2006, published 2007)
“Also recorded” adds a separate entry of the source.

Tested on: male Wistar rats
Assay: MK-801-induced persistent latent inhibition (LI), thirst motivated conditioned emotional response procedure
Assay type: in vivo, rat
Source text: Latent inhibition (“LI”) is the process whereby pre-exposure to a stimulus retards conditioning to this stimulus when it is subsequently paired with reinforcement, and it has been used extensively to model cognitive impairments in schizophrenia. […] Briefly, amphetamine disrupts LI in rats and normal humans, and this is paralleled by disrupted LI in acute schizophrenia patients. Amphetamine-induced LI disruption is reversed by both typical and atypical APDs.
The rats used were male Wistar rats approximately five months old, weighing 350 g to 500 g.
Rats were tested in Campden Instruments rodent test chambers with a retractable bottle. When the bottle was not present, the hole was covered by a metal lid. Licks were detected by a Campden Instruments drinkometer. The preexposed to-be-conditioned stimulus was a 10 sec, 80 dB, 2.8 kHz tone produced by a Sonalert module. Shock was supplied through the floor by a Campden Instruments shock generator and shock scrambler set at 0.5 mA and 1 sec duration. Equipment programming and data recording were computer controlled.
LI was measured in a thirst motivated conditioned emotional response (“CER”) procedure by comparing the suppression of drinking to a tone previously paired with a foot shock in rats that received non-reinforced exposure to the tone prior to conditioning (preexposed) and in rats for whom the tone was novel (non-preexposed).
Prior to the beginning of each LI experiment, rats were handled for about 2 min daily for 8 days. On day 9, a 23 h water restriction schedule was initiated and continued throughout the experiment. After 5 days of deprivation (days 9-13), rats were trained to drink in the experimental chambers for the next 5 days (days 14-18), for 20 min during the 1st day and for 15 min per day during each of the next 4 days. Water in the test apparatus was given in addition to the daily ration of 1 h given in the home cages. The LI procedure was conducted on days 19-22 and consisted of the following stages:
With the bottle removed, the preexposed (“PE”) rats received 40 tone presentations with an inter-stimulus interval of 50 sec. The nonpreexposed (“NPE”) rats were confined to the chamber for an identical period of time without receiving the tone.
With the bottle removed, each rat received 5 tone-shock pairings given 5 min apart. Shock immediately followed tone termination. The first tone-shock pairing was given 5 min after the start of the session. After the last pairing, rats were left in the experimental chamber for an additional 5 min. […]
Each rat was placed in the chamber and allowed to drink from the bottle. […] The following times were recorded: Time to first lick, time to complete licks 1-50, time to complete licks 51-75 (before tone onset) and time to complete licks 76-100 (after tone onset). […]

| Compound | LI (difference between preexposed and nonpreexposed groups in log times to complete licks 76-100) (MK-801 0.05 mg/kg i.p. 30 min before conditioning, vehicle pretreatment, 40 preexposures, 5 conditioning trials) | LI / reversal of abnormally persistent LI in MK-801-treated rats (25 mg/kg ladostigil tartrate p.o. chronic + MK-801 0.05 mg/kg i.p.) | LI (difference between preexposed and nonpreexposed groups in log times to complete licks 76-100) (37.5 mg/kg ladostigil tartrate p.o. chronic + MK-801 0.05 mg/kg i.p.) | Effect on LI of drug on its own (ladostigil tartrate 25 mg/kg and 37.5 mg/kg p.o. chronic + saline (no MK-801)) |
| --- | --- | --- | --- | --- |
| C[C@]12N[C@H](Cc3ccccc31)c1ccccc12 [MK-801, dizocilpine, reference compound] | significant difference between the preexposed and nonpreexposed groups, namely, LI; also recorded: persisted in showing LI | – | – | – |
| R(+)-6-(N-methyl, N-ethyl-carbamoyloxy)-N′-propargyl-1-aminoindan ½ tartrate [ladostigil tartrate] | – | reversed abnormally persistent LI | significant difference between the preexposed and nonpreexposed groups, namely, LI | had no effect |
